Test results: patent US9045483B2, “Inhibition of small ubiquitin-like modifier enzymes with substituted pyrrolo[2,3-b]quinoxalines” (City of Hope, priority 2010, dated 2015)
“Also recorded” adds a separate entry of the source. Read-outs that look alike come from different tables or passages of the source.

Legend:
SUMO E1 [1] = target: T1, SUMO E1 (Homo sapiens (Human), UniProt Q9UBT2); assay: SUMO E1 inhibition, formation of the Ubc9-SUMO thioester (biochemical assay)
Fa2N-4 cells = assay: Toxicity on immortalized human hepatocytes, cellular ATP viability assay; type: cell-based; conditions: Fa2N-4, concentrations up to 50 μM, 24 hrs
Experimental: FIG. 9 illustrates the toxicity of the SUMO inhibitor on normal human liver cells. Immortalized human hepatocytes, Fa2N-4 cells (XenoTech) were seeded at ˜50-60K cells/well, and incubated with a range of concentrations (0.01-50 μM) 1, in duplicate, for 24 hrs at 37° C., 5% CO2. Cell viability was determined by cellular ATP levels using the Luminescence ATP Detection Assay System (Tecan).

[2] = tested on: RanGAP1 stable SUMOylation in U20S and DLD1 cells; assay: Stable SUMOylation, RanGAP1 and RanBP2 localization by immunohistochemistry; type: cell-based; conditions: 18 hours
Experimental: Cells were treated with the compound at indicated concentration for 18 hours, and then localization of RanGAP1 and RanBP2 was detected by immunohistochemistry. Nuclei are stained with DAPI.

53BP1 = 53BP1 colocalization with γH2AX at DSB sites in IR-treated cells; type: cell-based; conditions: 20 μM, 18 hours, 1 Gy, 1 hour recovery
Excerpt: (Green: γH2AX; Red: 53BP1).

[3] = tested on: MCF7, H1299, DLD1 and SJSA cancer cell lines; assay: Sensitization of cancer cell lines to irradiation, MTS cell survival assay; type: cell-based; conditions: for sensitization of cancer cell lines to radiation: drug 4 hours, then 4 Gy
Experimental: The cells were treated with different doses of the drug for 4 hours, followed by irradiation with 4 Gy and incubation for an additional 68 hours. […] Cell survival was assessed by MTS assays
Quinoxaline 1 was added to cultures of various cancer cell lines for 4 hours, after which cells were irradiated at 4 Gy. Forty-eight hours after irradiation, cell viability was measured by MTS assay.

SUMO E1 [4] = target: T1, SUMO E1; assay: NMR saturation transfer difference (STD) competition with ATP; type: binding
Excerpt: In (A), ATP spectra with assignments indicated, and the percentage of STD effects indicated for each resonance. Red spectrum indicates 2 s saturation at −30 ppm (control), blue spectrum (underneath red) indicates 2 s saturation of protein signals at 0 ppm, and green spectrum (bottom) indicates the difference between the red and blue spectra. […] […] The corresponding STD spectra are color-coded as indicated to the right. A region of the spectrum covering H2 of ATP and H12 and H13 from the compound are shown, with the H2 signal of ATP expanded in the inset. […] The titration data was used to estimate Kd of the compound.

BRCA1 = BRCA1 colocalization with γH2AX in IR-treated cells; type: cell-based; conditions: 20 μM, 18 hours, 1 Gy
Excerpt: (Green: BRCA1; Red: γH2AX).

[5] = tested on: global SUMOylation in HT29, HCT116 and U373 cells; assay: Global SUMOylation in cancer cell lines, Western blot with anti-SUMO2/3 antibodies; type: cell-based; conditions: 18 hours; for inhibition of SUMOylation in cells: various concentrations, HCT116, HT29, U373
Experimental: Western blots (probed with anti-SUMO2/3 antibodies) of cell lysates from HT29, HCT116 and U373 cells treated with compound 1. SUMO2/3 modifies many proteins as poly-SUMO chains, and is detected as high molecular weight smears. 16c indicates the control compound 2 used at concentrations of 16 μM.
Quinoxaline 1 or 2 was added to cell culture media at various concentrations for 18 hours, after which SUMOylated proteins were detected using anti-SUMO antibodies. […] Thus, quinoxaline 1 has potent and specific inhibitory effects in various cancer cell lines.

HIV = type: cell-based
ubiquitin E1 = ubiquitin E1 (Homo sapiens (Human), UniProt P22314); conditions: Ubc5-ubiquitin thioester vs Ubc9-SUMO thioester
SUMO E1 [6] = target: T1, SUMO E1; conditions: in the presence of Mg2+; read-out: Kd of ATP binding to E1; cited from earlier work
[7] = in vitro, read-out: IC50 for SUMO E1

T1 sequence (Q9UBT2 whole entry): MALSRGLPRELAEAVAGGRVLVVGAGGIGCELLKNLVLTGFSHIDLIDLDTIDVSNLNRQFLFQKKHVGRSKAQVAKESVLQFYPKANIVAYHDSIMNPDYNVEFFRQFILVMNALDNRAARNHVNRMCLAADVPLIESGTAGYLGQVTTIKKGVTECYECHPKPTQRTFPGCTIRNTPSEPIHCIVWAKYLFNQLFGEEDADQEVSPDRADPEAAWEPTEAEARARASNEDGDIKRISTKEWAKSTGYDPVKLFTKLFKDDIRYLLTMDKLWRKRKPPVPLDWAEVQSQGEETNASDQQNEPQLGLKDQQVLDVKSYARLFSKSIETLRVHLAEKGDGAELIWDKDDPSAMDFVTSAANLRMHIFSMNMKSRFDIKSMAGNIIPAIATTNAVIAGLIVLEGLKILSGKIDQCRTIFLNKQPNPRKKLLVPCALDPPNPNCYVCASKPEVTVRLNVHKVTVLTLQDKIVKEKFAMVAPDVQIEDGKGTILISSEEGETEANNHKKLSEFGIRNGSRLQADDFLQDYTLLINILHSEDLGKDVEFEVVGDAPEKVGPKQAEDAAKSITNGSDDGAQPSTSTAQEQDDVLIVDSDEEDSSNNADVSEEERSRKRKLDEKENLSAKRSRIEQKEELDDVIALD
T1 sequence (Q9UBE0 whole entry partner): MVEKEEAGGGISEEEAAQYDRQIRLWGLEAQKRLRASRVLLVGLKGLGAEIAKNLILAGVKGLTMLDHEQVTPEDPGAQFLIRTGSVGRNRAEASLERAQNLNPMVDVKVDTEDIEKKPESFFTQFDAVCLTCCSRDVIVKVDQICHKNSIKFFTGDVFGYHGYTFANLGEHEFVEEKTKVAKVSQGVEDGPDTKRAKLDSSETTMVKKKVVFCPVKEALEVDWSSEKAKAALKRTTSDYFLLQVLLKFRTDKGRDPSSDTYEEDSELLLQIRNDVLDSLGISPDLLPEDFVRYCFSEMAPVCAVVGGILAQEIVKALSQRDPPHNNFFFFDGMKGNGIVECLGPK
ubiquitin E1, sequence (P22314 whole entry, looked up): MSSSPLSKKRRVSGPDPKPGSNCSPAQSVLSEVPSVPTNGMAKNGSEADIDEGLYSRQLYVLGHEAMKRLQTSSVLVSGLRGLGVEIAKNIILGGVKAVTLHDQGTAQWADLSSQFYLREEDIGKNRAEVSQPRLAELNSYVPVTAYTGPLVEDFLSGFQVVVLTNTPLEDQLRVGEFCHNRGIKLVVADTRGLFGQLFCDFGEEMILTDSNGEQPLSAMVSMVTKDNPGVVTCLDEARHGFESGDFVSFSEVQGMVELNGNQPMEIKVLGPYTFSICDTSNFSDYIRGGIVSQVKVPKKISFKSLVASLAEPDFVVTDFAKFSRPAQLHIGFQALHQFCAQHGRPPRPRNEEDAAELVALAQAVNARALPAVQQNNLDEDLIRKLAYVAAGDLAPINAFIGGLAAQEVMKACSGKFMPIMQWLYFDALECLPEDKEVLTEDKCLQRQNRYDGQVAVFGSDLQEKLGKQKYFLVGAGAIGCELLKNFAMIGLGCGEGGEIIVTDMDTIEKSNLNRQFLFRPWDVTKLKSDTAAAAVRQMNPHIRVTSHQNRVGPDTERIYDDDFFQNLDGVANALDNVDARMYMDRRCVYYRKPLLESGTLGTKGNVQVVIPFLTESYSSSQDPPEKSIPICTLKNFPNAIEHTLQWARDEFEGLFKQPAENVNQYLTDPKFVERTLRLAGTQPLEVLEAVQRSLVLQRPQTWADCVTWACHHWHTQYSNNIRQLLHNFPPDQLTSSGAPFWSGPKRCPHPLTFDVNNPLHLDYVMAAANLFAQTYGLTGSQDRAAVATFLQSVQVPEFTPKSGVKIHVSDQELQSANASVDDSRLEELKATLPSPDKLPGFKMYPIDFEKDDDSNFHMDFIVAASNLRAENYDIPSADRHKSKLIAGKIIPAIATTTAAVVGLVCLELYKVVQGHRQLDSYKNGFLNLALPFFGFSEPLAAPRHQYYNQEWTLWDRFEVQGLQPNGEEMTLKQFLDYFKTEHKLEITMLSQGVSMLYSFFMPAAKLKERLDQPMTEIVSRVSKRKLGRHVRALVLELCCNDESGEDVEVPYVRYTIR

Work on CCCCn1c(NC(=O)c2ccco2)c(C#N)c2nc3ccccc3nc21 [Tricyclic Compound 10] yielded an IC50 (SUMO E1 [1]; [7]) of 5.7 µM.

With CCCCn1c(NS(=O)(=O)c2ccccc2)c(S(=O)(=O)c2ccc(C)cc2)c2nc3ccccc3nc21 [Tricyclic Compound 1] the “toxicity to human hepatocytes” value (Fa2N-4 cells) was “did not cause significant toxicity”, the “toxicity to human hepatocytes” value (Fa2N-4 cells; listed as Quinoxaline 1) was “no toxicity was detected” and the “effect on stable SUMOylation” value [2] was “does not disrupt stable SUMOylation”. For the same compound, the “53BP1 colocalization with γH2AX” value (53BP1; DLD1 cells) was “inhibits 53BP1 colocalization with γH2AX”, the “53BP1 colocalization with γH2AX” value (53BP1; U20S cells) was “inhibits 53BP1 colocalization with γH2AX” and the “toxicity in cancer cell lines” value [3] was “induced some toxicity in selected cancer cell lines”. The “sensitization of cancer cell lines to radiation” value ([3]; listed as MLS-0207587) was “significantly lower survival rate”, the “sensitization of cancer cell lines to radiation” value ([3]; listed as Quinoxaline 1) was “significantly enhanced the sensitivity” and the “competition with ATP binding to E1” value (SUMO E1 [4]) was “strong competition with ATP binding”. For the same compound, the “reduction in the STD of ATP” value (SUMO E1 [4]; 30 μM inhibitor, 80 μM ATP, 2 μM E1, 0.4 mM Mg2+) was “more than 60%”, the Kd (SUMO E1 [4]; estimated from competitive STD data, read-out: Kd (inhibitor-enzyme dissociation constant)) was roughly 0.18 µM and the “competition with ATP binding to E1” value (SUMO E1 [4]; listed as quinoxaline 1) was “competed with the binding of ATP”. The “BRCA1 colocalization with γH2AX” value (BRCA1; DLD1 cells, 1 hour recovery) was “inhibits BRCA1 colocalization with γH2AX”, the “BRCA1 colocalization with γH2AX” value (BRCA1; U20S cells, 1 hour) was “inhibits BRCA1 colocalization with γH2AX” and the IC50 (SUMO E1 [1]; in vitro, listed as compound 1, read-out: IC50 for SUMO E1) was roughly 0.5 µM. For the same compound, the IC50 (SUMO E1 [1]; [7]) was 0.5 µM, the inhibition at 16 µM ([5]; 16 μM) was greater than 80% and the “inhibition of SUMOylation in cells” value [5] was “inhibits global SUMOylation in a dose-dependent manner”. For the same compound, the “inhibition of SUMOylation in cells” value ([5]; listed as Quinoxaline 1) was “inhibited SUMOylation in a dose-dependent manner”, the “inhibition of HIV infection” value (HIV) was “inhibited HIV infection in a dose dependent manner; also recorded: inhibits HIV infection in a dose-dependent manner” and the “IC50 for ubiquitin E1 relative to SUMO E1 (selectivity)” value (ubiquitin E1) was greater than 100 fold. The “IC50 for ubiquitin E1 relative to SUMO E1 (selectivity)” value (ubiquitin E1; listed as quinoxaline 1) was “more than 100 fold”.

Work on CCCCNC(=O)c1c(NC(=O)c2ccccc2Cl)n(Cc2ccccc2)c2nc3ccccc3nc12 [Tricyclic Compound 9] yielded an IC50 (SUMO E1 [1]; [7]) of 1.1 µM.

CCCCn1c(NC(=O)c2ccccc2)c(S(=O)(=O)c2ccccc2)c2nc3ccccc3nc21 [Tricyclic Compound 7] showed an IC50 (SUMO E1 [1]; [7]) of 98 µM.

For CCCCn1c(NC(=O)c2ccc(Cl)cc2)c(C#N)c2nc3cc(C)c(C)cc3nc21 [Tricyclic Compound 8], the IC50 (SUMO E1 [1]; [7]) was 4.5 µM.

In the case of Nc1ncnc2c1ncn2[C@@H]1O[C@H](COP(=O)(O)OP(=O)(O)OP(=O)(O)O)[C@@H](O)[C@H]1O [ATP], the Kd (SUMO E1 [6]) is listed as roughly 0.2 µM.

With CCCCn1c(NC(=O)c2ccccc2Cl)c(S(=O)(=O)c2ccccc2)c2nc3ccccc3nc21 [Tricyclic Compound 11] the IC50 (SUMO E1 [1]; [7]) was greater than 100 µM.

For C=CCn1c(NS(=O)(=O)c2ccccc2)c(S(=O)(=O)c2ccc(C)cc2)c2nc3ccccc3nc21 [Tricyclic Compound 12], the IC50 (SUMO E1 [1]; [7]) was 0.5 µM.

In the case of CCCCn1c(NC(=O)c2ccc(F)cc2)c(C#N)c2nc3ccccc3nc21 [Tricyclic Compound 13], the IC50 (SUMO E1 [1]; -BSA, read-out: IC50(-BSA)) is reported as 0.76 µM.

Compound CCCCn1c(NC(=O)c2ccccc2)c(C#N)c2nc3ccccc3nc21 [Tricyclic Compound 3] has an IC50 (SUMO E1 [1]; [7]) of 3.6 µM.

CCCCn1c(NC(=O)c2ccccc2Cl)c(C#N)c2nc3ccccc3nc21 [Tricyclic Compound 2] gave an IC50 (SUMO E1 [1]; [7]) of 20 µM.

Compound N#Cc1c(NC(=O)c2ccccc2Cl)n(Cc2ccccc2)c2nc3ccccc3nc12 [Tricyclic Compound 5] has an IC50 (SUMO E1 [1]; [7]) of 25 µM.

For CCCCn1c(NC(C)=O)c(C#N)c2nc3ccccc3nc21 [Tricyclic Compound 4], the IC50 (SUMO E1 [1]; [7]) was 8.3 µM.

CCCCn1c(N)c(S(=O)(=O)c2ccccc2)c2nc3ccccc3nc21 [Tricyclic Compound 6] showed an IC50 (SUMO E1 [1]; [7]) of 64 µM.
